Measurements from PubChem BioAssay (NCI).
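These data come from cells grown in 96-well plates and exposed to compound for 48 hours at five concentrations. Here, GI50 denotes the concentration required for 50% inhibition of growth. TGI marks complete inhibition of growth.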

Experiments:
Assay in all cases: NCI anticancer screen, dose series, 48 h
[1] = test system: SF-295 CNS
[2] = test system: PC-3 prostate
[3] = test system: M14 melanoma
[4] = test system: HS 578T breast
[5] = test system: HOP-62 NSCLC
[6] = test system: IGROV1 ovarian
[7] = test system: SR leukemia
[8] = test system: U251 CNS
[9] = test system: SK-MEL-2 melanoma
[10] = test system: SNB-19 CNS
[11] = test system: MDA-MB-231 breast
[12] = test system: COLO 205 colon
[13] = test system: SNB-75 CNS
[14] = test system: OVCAR-3 ovarian
[15] = test system: SW-620 colon
[16] = test system: DU-145 prostate
[17] = test system: MOLT-4 leukemia
[18] = test system: EKVX NSCLC
[19] = test system: ACHN renal
[20] = test system: HCT-116 colon
[21] = test system: CCRF-CEM leukemia
[22] = test system: CAKI-1 renal
[23] = test system: A498 renal
[24] = test system: NCI-H23 lung
[25] = test system: OVCAR-8 ovarian
[26] = test system: UACC-62 melanoma
[27] = test system: OVCAR-5 ovarian
[28] = test system: TK-10 renal
[29] = test system: HT29 colon
[30] = test system: MCF7 breast
[31] = test system: UACC-257 melanoma
[32] = test system: SF-268 CNS
[33] = test system: HCT-15 colon
[34] = test system: K-562 leukemia
[35] = test system: A549 NSCLC
[36] = test system: OVCAR-4 ovarian
[37] = test system: NCI/ADR-RES ovarian
[38] = test system: NCI-H226 lung
[39] = test system: SK-OV-3 ovarian
[40] = test system: SF-539 CNS
[41] = test system: NCI-H460 lung
[42] = test system: 786-0 renal
[43] = test system: MDA-N
[44] = test system: MDA-MB-435
[45] = test system: RXF 393 renal
[46] = test system: SK-MEL-5 melanoma
[47] = test system: UO-31 renal
[48] = test system: HCC-2998 colon
[49] = test system: SN12C renal
[50] = test system: BT-549 breast
[51] = test system: T-47D breast
[52] = test system: RPMI-8226 leukemia
[53] = test system: MALME-3M melanoma
[54] = test system: LOX IMVI melanoma
[55] = test system: HL-60(TB) leukemia
[56] = test system: KM12 colon
[57] = test system: HOP-92 NSCLC
[58] = test system: NCI-H522 lung
[59] = test system: SK-MEL-28 melanoma

## CC(=O)OCC(OC(C)=O)C(OC(C)=O)C(/C=N/N(C(C)=O)S(=O)(=O)c1ccc(/C=C2\NC(=O)NC2=O)cc1)OC(C)=O (stereo not given)
[1]
  TGI: > 100 µM
[2]
  TGI: > 100 µM
[3]
  TGI: > 100 µM
[4]
  TGI: > 100 µM
[5]
  TGI: > 100 µM
[6]
  TGI: > 100 µM
[7]
  TGI: > 100 µM
[8]
  TGI: > 100 µM
[9]
  TGI: > 100 µM
[10]
  TGI: > 100 µM
[11]
  TGI: > 100 µM
[12]
  TGI: > 100 µM
[13]
  TGI: > 100 µM
[14]
  TGI: > 100 µM
[15]
  TGI: > 100 µM
[16]
  TGI: > 100 µM
[17]
  TGI: > 100 µM
[18]
  TGI: > 100 µM
[19]
  TGI: > 100 µM
[20]
  TGI: > 100 µM
[21]
  TGI: > 100 µM
[22]
  TGI: > 100 µM
[23]
  TGI: > 100 µM
[24]
  TGI: > 100 µM
[25]
  TGI: > 100 µM
[26]
  TGI: > 100 µM
[27]
  TGI: > 100 µM
[28]
  TGI: > 100 µM
[29]
  TGI: > 100 µM
[30]
  TGI: > 100 µM
[31]
  TGI: > 100 µM
[32]
  TGI: > 100 µM
[33]
  TGI: > 100 µM
[34]
  TGI: > 100 µM
[35]
  TGI: > 100 µM
[36]
  TGI: > 100 µM
[37]
  TGI: > 100 µM
[38]
  TGI: > 100 µM
[39]
  TGI: > 100 µM
[40]
  TGI: > 100 µM
[41]
  TGI: > 100 µM
[42]
  TGI: > 100 µM
[43]
  TGI: > 100 µM
[44]
  TGI: > 100 µM
[45]
  TGI: > 100 µM
[46]
  TGI: > 100 µM
[47]
  TGI: > 100 µM
[48]
  TGI: > 100 µM
[49]
  TGI: > 100 µM
[50]
  TGI: > 100 µM
[51]
  TGI: > 100 µM
[52]
  GI50: 0.583 µM
  TGI: > 100 µM
[53]
  TGI: > 100 µM

## COc1ccccc1NC(=O)C(C#N)=C(SC)SC
[1]
  TGI: > 100 µM
[2]
  TGI: > 100 µM
[54]
  TGI: > 100 µM
[3]
  TGI: > 100 µM
[4]
  TGI: > 100 µM
[5]
  TGI: > 100 µM
[6]
  TGI: > 100 µM
[7]
  TGI: > 100 µM
[55]
  TGI: > 100 µM
[8]
  TGI: > 100 µM
[9]
  TGI: > 100 µM
[10]
  TGI: > 100 µM
[56]
  TGI: > 100 µM
[11]
  TGI: > 100 µM
[12]
  TGI: > 100 µM
[14]
  TGI: > 100 µM
[15]
  TGI: > 100 µM
[16]
  TGI: > 100 µM
[17]
  TGI: > 100 µM
[18]
  TGI: > 100 µM
[19]
  TGI: > 100 µM
[20]
  TGI: > 100 µM
[21]
  TGI: > 100 µM
[22]
  TGI: > 100 µM
[23]
  TGI: > 100 µM
[57]
  TGI: > 100 µM
[24]
  TGI: > 100 µM
[26]
  TGI: > 100 µM
[27]
  TGI: > 100 µM
[28]
  TGI: > 100 µM
[29]
  TGI: > 100 µM
[30]
  TGI: > 100 µM
[31]
  TGI: > 100 µM
[58]
  TGI: > 100 µM
[32]
  TGI: > 100 µM
[33]
  TGI: > 100 µM
[34]
  TGI: > 100 µM
[35]
  TGI: > 100 µM
[36]
  TGI: > 100 µM
[38]
  TGI: > 100 µM
[39]
  TGI: > 100 µM
[40]
  TGI: > 100 µM
[41]
  TGI: > 100 µM
[42]
  TGI: > 100 µM
[43]
  TGI: > 100 µM
[44]
  TGI: > 100 µM
[45]
  TGI: > 100 µM
[46]
  TGI: > 100 µM
[47]
  TGI: > 100 µM
[48]
  TGI: > 100 µM
[59]
  TGI: > 100 µM
[49]
  TGI: > 100 µM
[50]
  TGI: > 100 µM
[51]
  TGI: > 100 µM
[52]
  TGI: > 100 µM
[53]
  TGI: > 100 µM
